Results from PubChem BioAssay (NCI).
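Assay format: 96-well plates, 48-hour exposure. At the GI50, growth is halved. Definition used: TGI = concentration required for complete inhibition of growth.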

What was measured:
Assay in all cases: DTP human tumour cell line panel, 48 h
[1] = system: HCT-15 colon
[2] = system: LOX IMVI melanoma
[3] = system: OVCAR-4 ovarian
[4] = system: RPMI-8226 leukemia
[5] = system: SK-MEL-5 melanoma
[6] = system: SK-OV-3 ovarian
[7] = system: SW-620 colon
[8] = system: T-47D breast
[9] = system: TK-10 renal
[10] = system: NCI-H460 lung

SMILES	TGI [1]	TGI [2]	TGI [3]	TGI [4]	TGI [5]	TGI [6]	TGI [7]	TGI [8]	TGI [9]	TGI [10]	GI50 [1]	GI50 [2]	GI50 [10]	GI50 [3]	GI50 [4]	GI50 [5]	GI50 [7]	GI50 [8]	GI50 [9]	GI50 [6]
O=C1CS(=O)C23c4cc5ccccc5n4CCC2CCCN13 (stereo not given)	> 100 µM	> 100 µM	> 100 µM	> 100 µM	> 100 µM	> 100 µM	> 100 µM	> 100 µM	> 100 µM											
CN1COCc2cc3cc4c(cc3nc21)OCCO4	> 100 µM	> 100 µM	> 100 µM	62.5 µM	> 100 µM	> 100 µM	> 100 µM		> 100 µM	> 100 µM										
COc1cc2c(c(O)c1O)-c1ccc(OC)c(=O)cc1C(NC(C)=O)CC2 (stereo not given)	> 100 µM	34.8 µM	> 84.2 µM	> 43.7 µM	16.2 µM	60.4 µM	51.6 µM		> 100 µM	87.7 µM										
COc1ccc(/C=N/N2C(=O)c3c(N)c(C#N)c(-c4ccccc4)c(-c4ccccc4)c3C2=O)cc1	> 100 µM	> 100 µM	> 100 µM	> 100 µM	> 100 µM		> 100 µM	> 100 µM	> 100 µM	> 100 µM										
Cc1ccc(-c2c(C#N)c(-c3ccc([N+](=O)[O-])cc3)c(C#N)c(=O)n2NS(=O)(=O)c2ccccc2)cc1	> 100 µM	83 µM	> 100 µM		26.9 µM	> 100 µM	> 100 µM		> 100 µM	> 100 µM										
COc1ccc2c(c1)CCN=C2c1ccccc1CCCCl	74.1 µM		52.2 µM	11.8 µM	13.3 µM	> 100 µM	> 100 µM	> 100 µM	> 100 µM	28.5 µM										
Cc1cn([C@H]2C[C@](C)(CO)N(C)O2)c(=O)[nH]c1=O		> 100 µM	> 100 µM	> 100 µM	> 100 µM	> 100 µM	> 100 µM	> 100 µM	> 100 µM	> 100 µM										
CCN1C(=O)N(CC)C2Nn3c(s/c(=C4\C(=O)N(C)c5ccccc54)c3=O)=NC21 (stereo not given)	> 100 µM	> 100 µM	> 100 µM	> 100 µM	> 100 µM		> 100 µM	> 100 µM		> 100 µM	1.27 µM	4.82 µM	3.35 µM	1.98 µM	3.97 µM	4.61 µM	1.52 µM	3.14 µM		
COc1ccc(N=NC(=Nc2ccc(F)cc2)c2ccc(N(CCC#N)CCC#N)cc2)cc1	> 100 µM		> 100 µM	> 100 µM	> 100 µM	> 100 µM	> 100 µM	> 100 µM	> 100 µM	52 µM										
CSC(SC)=C1C(=O)N(c2ccccc2)N=C1C	> 100 µM	> 100 µM	> 100 µM		24.3 µM	91.9 µM	> 100 µM		> 100 µM	82.4 µM										
O=C(CNCc1ccccc1)Oc1c(Cl)c(Cl)c(Cl)c(Cl)c1Cl	61 µM	74.4 µM	> 100 µM			> 100 µM	84.5 µM	67.9 µM	> 100 µM	> 100 µM										
NC(=O)c1ncn2c1NC(=O)CC2	> 100 µM	> 100 µM	> 100 µM	> 100 µM	> 100 µM	> 100 µM	> 100 µM			> 100 µM										
O=C(Nc1ccc(-n2cc(-c3ccncc3)c(-c3ccc(O)c(Cl)c3)n2)cc1)Nc1cccc(Cl)c1Cl	> 32.5 µM	> 32.5 µM	> 32.5 µM	6.08 µM	> 32.5 µM		> 32.5 µM	> 32.5 µM	22.1 µM	> 32.5 µM	5.33 µM	3.45 µM	5.74 µM	5.47 µM	0.912 µM	3.26 µM	20.6 µM	8.62 µM	6.52 µM	
O=C(O)CC(NC(=O)/C(=C/c1ccccc1O)NC(=O)c1ccccc1)C(=O)O (stereo not given)	> 100 µM	> 100 µM	> 100 µM	> 100 µM	> 100 µM	> 100 µM	> 100 µM	> 100 µM	> 100 µM											
N#Cc1c(C#N)c(-c2ccccc2)n(-c2ccccc2)c1N	> 100 µM	> 100 µM	> 100 µM	> 100 µM	> 100 µM	> 100 µM	> 100 µM	56.1 µM	> 100 µM											
COc1ccccc1N1CCN(CCCNC(=O)c2cc(Cl)c(N)c(Cl)c2)CC1	> 100 µM		> 100 µM	54.5 µM	33.2 µM	> 100 µM	> 100 µM	> 100 µM	> 100 µM	> 100 µM										
C[C@]12CC[C@H](O)C=C1CC[C@@H]1[C@@H]2CC[C@]2(C)C(c3ccc(=O)oc3)CC[C@]12O (stereo not given in full)	0.0803 µM	0.242 µM	0.0356 µM	0.0733 µM	0.0163 µM	0.065 µM	0.362 µM			0.0156 µM										
Cc1cn2c(C)csc2c1P(=O)(OC(C)C)OC(C)C	> 100 µM	> 100 µM	> 100 µM	> 100 µM	> 100 µM	> 100 µM	> 100 µM		> 100 µM	> 100 µM										
O=C([CH-]C(=O)c1ccccc1)c1ccccc1.O=C([CH-]C(=O)c1ccccc1)c1ccccc1.[O]=[U+2]=[O]	11.1 µM	> 100 µM	14 µM	6.4 µM	9.12 µM	12.3 µM	> 100 µM		26.6 µM	13.1 µM	2.78 µM	2.7 µM	1.99 µM	2.42 µM	1.99 µM	2.77 µM	3.15 µM		4.8 µM	4.01 µM
COP(=O)(OC)C12CCOCCN1c1ccccc1C2=O (stereo not given)	> 100 µM		> 100 µM	> 100 µM	> 100 µM	> 100 µM	> 100 µM	> 100 µM	> 100 µM	> 100 µM										
